Test results as given in patent US11969428B2, “Methods and pharmaceutical compositions for treating lymphoid malignancy” (priority 2011, dated 2024).

Experiments:
[1] = target: T1, AKT1 (Homo sapiens, UniProt P31749); assay: Ambit KinomeScan screening; format: binding; conditions: CAL-130 10 μM
T1 construct: purchased Ambit (KinomeScan screening)
How it was run: (§1)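 CAL-130 was tested at 10 μM for its ability to block tagged kinases from binding an immobilized bait ligand across a 353-kinase panel. Values are expressed as percent of control binding, with lower numbers meaning stronger interaction and values above 35% classed as no hit.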

[2] = target: T2, ALK (Homo sapiens, UniProt Q9UM73); assay: Ambit KinomeScan screening; format: binding; conditions: CAL-130 10 μM
T2 construct: purchased Ambit (KinomeScan screening)
How it was run: as §1

[3] = target: T3, ASK2 (Homo sapiens, UniProt O95382); assay: Ambit KinomeScan screening; format: binding; conditions: CAL-130 10 μM
T3 construct: purchased Ambit (KinomeScan screening service)
How it was run: as §1

[4] = target: T4, BMX (Homo sapiens, UniProt P51813); assay: Ambit KinomeScan screening; format: binding; conditions: CAL-130 10 μM
T4 construct: unspecified tag ("tagged kinases"); purchased Ambit (KinomeScan screening)
How it was run: as §1

[5] = target: T5, CAMK2A (Homo sapiens, UniProt Q9UQM7); assay: Ambit KinomeScan screening; format: binding; conditions: CAL-130 10 μM
T5 construct: unspecified tag ("tagged kinases"); purchased Ambit (KinomeScan screening)
T5 sequence (Q9UQM7 whole entry): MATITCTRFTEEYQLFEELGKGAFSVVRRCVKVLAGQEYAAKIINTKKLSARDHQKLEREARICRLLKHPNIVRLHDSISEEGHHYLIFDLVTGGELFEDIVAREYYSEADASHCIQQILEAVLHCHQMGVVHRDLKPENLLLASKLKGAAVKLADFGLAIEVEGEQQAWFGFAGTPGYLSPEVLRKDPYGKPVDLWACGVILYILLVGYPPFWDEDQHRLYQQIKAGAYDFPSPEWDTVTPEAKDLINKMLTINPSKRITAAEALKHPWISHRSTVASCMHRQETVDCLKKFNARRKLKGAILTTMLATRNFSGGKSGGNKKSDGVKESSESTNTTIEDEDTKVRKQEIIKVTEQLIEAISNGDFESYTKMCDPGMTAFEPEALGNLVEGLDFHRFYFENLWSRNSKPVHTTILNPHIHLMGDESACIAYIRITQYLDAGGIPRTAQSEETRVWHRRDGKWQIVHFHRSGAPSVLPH
How it was run: as §1

[6] = target: T6, CDC2L2 (Homo sapiens, UniProt Q9UQ88); assay: Ambit KinomeScan screening; format: binding; conditions: CAL-130 10 μM
T6 construct: purchased Ambit (KinomeScan screening)
How it was run: as §1

[7] = target: T7, CSK (Homo sapiens, UniProt P41240); assay: Ambit KinomeScan screening; format: binding; conditions: CAL-130 10 μM
T7 construct: purchased Ambit (KinomeScan screening service)
How it was run: as §1

[8] = target: T8, DAPK1 (Homo sapiens, UniProt P53355); assay: Ambit KinomeScan screening; format: binding; conditions: CAL-130 10 μM
T8 construct: purchased Ambit (KinomeScan screening service)
T8 sequence (P53355 whole entry): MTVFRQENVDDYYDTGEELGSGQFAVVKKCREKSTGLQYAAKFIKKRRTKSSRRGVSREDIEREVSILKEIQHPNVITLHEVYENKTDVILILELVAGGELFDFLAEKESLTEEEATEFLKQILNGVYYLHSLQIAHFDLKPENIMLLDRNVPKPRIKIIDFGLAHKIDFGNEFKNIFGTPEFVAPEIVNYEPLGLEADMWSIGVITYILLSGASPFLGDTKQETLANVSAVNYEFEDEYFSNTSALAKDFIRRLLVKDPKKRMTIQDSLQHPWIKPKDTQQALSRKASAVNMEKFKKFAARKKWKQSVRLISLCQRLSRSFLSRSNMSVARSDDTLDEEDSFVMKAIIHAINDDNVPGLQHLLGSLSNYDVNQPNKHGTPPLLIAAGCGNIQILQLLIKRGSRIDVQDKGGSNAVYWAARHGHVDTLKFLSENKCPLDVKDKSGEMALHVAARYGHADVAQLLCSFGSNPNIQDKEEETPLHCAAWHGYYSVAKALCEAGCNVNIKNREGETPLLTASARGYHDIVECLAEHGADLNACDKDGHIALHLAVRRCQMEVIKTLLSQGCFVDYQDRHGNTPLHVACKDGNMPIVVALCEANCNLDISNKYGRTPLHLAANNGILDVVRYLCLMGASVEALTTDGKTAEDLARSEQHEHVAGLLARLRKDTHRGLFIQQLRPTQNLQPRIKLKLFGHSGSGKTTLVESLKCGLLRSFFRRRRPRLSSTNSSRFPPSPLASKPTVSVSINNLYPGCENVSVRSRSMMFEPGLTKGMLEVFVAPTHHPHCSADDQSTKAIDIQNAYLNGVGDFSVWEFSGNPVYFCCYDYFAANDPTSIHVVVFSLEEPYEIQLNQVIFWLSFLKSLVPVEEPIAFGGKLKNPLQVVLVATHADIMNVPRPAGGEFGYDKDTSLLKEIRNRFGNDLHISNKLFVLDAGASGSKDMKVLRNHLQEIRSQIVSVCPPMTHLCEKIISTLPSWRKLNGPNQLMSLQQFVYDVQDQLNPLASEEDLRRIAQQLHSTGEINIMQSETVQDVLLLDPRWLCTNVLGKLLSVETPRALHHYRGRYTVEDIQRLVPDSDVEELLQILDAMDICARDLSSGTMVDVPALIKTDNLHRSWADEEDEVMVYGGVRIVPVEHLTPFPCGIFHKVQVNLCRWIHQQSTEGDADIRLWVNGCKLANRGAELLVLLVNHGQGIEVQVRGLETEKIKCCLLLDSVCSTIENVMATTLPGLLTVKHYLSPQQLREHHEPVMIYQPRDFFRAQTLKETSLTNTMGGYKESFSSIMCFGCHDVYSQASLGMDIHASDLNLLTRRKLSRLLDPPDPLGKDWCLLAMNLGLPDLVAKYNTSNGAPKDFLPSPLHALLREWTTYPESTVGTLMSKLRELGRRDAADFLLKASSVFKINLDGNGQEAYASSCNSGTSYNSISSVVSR
How it was run: as §1

[9] = target: T9, DAPK2 (Homo sapiens, UniProt Q9UIK4); assay: Ambit KinomeScan screening; format: binding; conditions: CAL-130 10 μM
T9 construct: purchased Ambit (KinomeScan screening service)
How it was run: as §1

[10] = target: T10, DYRK1B (Homo sapiens, UniProt Q9Y463); assay: Ambit KinomeScan screening; format: binding; conditions: CAL-130 10 μM
T10 construct: unspecified tag ("tagged kinases"); purchased Ambit (KinomeScan screening service)
How it was run: as §1

[11] = target: T11, EGFR(L858R) (Homo sapiens, UniProt P00533, L858R); assay: Ambit KinomeScan screening; format: binding; conditions: CAL-130 10 μM
T11 construct: unspecified tag; purchased Ambit (KinomeScan screening service)
How it was run: as §1

[12] = target: T12, EPHA8 (Homo sapiens, UniProt P29322); assay: Ambit KinomeScan screening; format: binding; conditions: CAL-130 10 μM
T12 construct: purchased Ambit (KinomeScan screening service)
How it was run: as §1

[13] = target: T13, EPHB3 (Homo sapiens, UniProt P54753); assay: Ambit KinomeScan screening; format: binding; conditions: CAL-130 10 μM
T13 construct: purchased Ambit (KinomeScan screening service)
T13 sequence (P54753 34-998): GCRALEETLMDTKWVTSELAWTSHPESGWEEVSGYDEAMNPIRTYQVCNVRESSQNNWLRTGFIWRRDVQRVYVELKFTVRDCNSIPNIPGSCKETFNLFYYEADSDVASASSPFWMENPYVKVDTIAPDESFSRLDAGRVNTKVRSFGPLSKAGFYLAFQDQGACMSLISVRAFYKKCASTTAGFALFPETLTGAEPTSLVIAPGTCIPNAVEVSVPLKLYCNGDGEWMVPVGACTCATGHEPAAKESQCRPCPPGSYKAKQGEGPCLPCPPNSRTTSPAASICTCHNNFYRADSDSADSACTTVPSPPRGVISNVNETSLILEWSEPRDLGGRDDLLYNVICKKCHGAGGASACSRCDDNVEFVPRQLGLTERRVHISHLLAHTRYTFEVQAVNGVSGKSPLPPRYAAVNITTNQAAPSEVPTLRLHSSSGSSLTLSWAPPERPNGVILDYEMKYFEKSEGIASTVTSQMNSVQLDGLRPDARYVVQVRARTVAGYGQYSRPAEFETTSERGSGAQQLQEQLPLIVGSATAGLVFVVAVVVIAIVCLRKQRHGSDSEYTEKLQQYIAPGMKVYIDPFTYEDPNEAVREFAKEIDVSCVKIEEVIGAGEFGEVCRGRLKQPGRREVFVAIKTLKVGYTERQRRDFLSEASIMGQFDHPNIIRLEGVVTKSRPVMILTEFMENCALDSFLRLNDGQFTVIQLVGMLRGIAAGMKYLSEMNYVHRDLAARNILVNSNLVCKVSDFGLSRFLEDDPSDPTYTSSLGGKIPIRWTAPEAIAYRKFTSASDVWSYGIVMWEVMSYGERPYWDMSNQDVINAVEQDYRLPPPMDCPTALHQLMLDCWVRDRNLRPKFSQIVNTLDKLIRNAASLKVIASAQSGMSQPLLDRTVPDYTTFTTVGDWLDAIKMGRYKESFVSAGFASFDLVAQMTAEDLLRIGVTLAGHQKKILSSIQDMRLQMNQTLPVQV
How it was run: as §1

[14] = target: T14, ERK1 (Homo sapiens, UniProt P27361); assay: Ambit KinomeScan screening; format: binding; conditions: CAL-130 10 μM
T14 construct: unspecified tag ("tagged kinases"); purchased Ambit (KinomeScan screening service)
How it was run: as §1

[15] = target: T15, FLT4 (Homo sapiens, UniProt P35916); assay: Ambit KinomeScan screening; format: binding; conditions: CAL-130 10 μM
T15 construct: unspecified tag ('tagged kinases'); purchased Ambit (KinomeScan screening service)
How it was run: as §1

[16] = target: T16, HIPK4 (Homo sapiens, UniProt Q8NE63); assay: Ambit KinomeScan screening; format: binding; conditions: CAL-130 10 μM
T16 construct: Ambit (KinomeScan screening)
How it was run: as §1

[17] = target: T17, LIMK1 (Homo sapiens, UniProt P53667); assay: Ambit KinomeScan screening; format: binding; conditions: CAL-130 10 μM
T17 construct: unspecified tag ('tagged kinases'); purchased Ambit (KinomeScan screening service)
How it was run: as §1

[18] = target: T18, MAK (Homo sapiens, UniProt P20794); assay: Ambit KinomeScan screening; format: binding; conditions: CAL-130 10 μM
T18 construct: unspecified tag ('tagged kinases'); purchased Ambit (KinomeScan screening service)
T18 sequence (P20794 whole entry): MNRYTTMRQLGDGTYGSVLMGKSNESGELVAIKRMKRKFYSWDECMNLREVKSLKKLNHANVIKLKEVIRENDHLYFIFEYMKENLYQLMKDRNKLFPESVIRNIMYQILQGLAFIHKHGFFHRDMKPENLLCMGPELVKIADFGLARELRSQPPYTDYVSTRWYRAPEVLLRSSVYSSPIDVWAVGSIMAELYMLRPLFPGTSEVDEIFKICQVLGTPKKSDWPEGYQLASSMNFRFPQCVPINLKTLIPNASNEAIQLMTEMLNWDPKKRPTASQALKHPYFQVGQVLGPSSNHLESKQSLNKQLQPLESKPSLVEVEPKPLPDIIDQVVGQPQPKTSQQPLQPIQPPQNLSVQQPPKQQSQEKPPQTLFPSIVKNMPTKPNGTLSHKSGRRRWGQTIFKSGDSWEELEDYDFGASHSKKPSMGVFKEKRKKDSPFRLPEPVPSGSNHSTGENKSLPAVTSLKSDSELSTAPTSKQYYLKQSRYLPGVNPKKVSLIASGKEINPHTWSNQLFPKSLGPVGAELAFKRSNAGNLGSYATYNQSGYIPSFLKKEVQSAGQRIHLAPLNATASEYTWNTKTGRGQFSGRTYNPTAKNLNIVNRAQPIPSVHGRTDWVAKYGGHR
How it was run: as §1

[19] = target: T19, MAP4K2 (Homo sapiens, UniProt Q12851); assay: Ambit KinomeScan screening; format: binding; conditions: CAL-130 10 μM
T19 construct: Ambit (KinomeScan screening)
How it was run: as §1

[20] = target: T20, MARK2 (Homo sapiens, UniProt Q7KZI7); assay: Ambit KinomeScan screening; format: binding; conditions: CAL-130 10 μM
T20 construct: Ambit (KinomeScan screening)
How it was run: as §1

[21] = target: T21, MKNK1 (Homo sapiens, UniProt Q9BUB5); assay: Ambit KinomeScan screening; format: binding; conditions: CAL-130 10 μM
T21 construct: unspecified tag ('tagged kinases'); purchased Ambit (KinomeScan screening)
How it was run: as §1

[22] = target: T22, MLCK (Homo sapiens, UniProt Q32MK0); assay: Ambit KinomeScan screening; format: binding; conditions: CAL-130 10 μM
T22 construct: unspecified tag ('tagged kinases'); purchased Ambit (KinomeScan screening)
T22 sequence (Q32MK0 whole entry): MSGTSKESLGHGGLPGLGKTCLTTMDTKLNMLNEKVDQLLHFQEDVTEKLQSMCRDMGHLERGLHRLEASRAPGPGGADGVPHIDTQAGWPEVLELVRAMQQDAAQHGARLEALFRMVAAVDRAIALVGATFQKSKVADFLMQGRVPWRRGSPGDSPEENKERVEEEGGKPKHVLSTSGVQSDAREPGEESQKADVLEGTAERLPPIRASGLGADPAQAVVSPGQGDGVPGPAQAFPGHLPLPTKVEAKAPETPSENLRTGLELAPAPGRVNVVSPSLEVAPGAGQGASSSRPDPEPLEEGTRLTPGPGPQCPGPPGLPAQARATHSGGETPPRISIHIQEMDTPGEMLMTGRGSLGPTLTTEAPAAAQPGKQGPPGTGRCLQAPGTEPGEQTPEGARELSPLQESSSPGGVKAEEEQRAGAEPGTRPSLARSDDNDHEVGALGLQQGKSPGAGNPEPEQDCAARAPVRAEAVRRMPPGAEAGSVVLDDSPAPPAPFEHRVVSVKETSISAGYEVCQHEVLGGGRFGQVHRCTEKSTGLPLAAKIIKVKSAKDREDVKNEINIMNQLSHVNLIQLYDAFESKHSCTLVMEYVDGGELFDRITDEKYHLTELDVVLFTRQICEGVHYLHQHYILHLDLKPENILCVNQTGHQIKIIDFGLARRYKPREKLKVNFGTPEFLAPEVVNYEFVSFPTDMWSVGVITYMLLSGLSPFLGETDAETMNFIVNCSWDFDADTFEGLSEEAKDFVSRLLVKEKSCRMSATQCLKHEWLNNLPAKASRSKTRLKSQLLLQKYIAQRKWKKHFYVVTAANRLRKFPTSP
How it was run: as §1

[23] = target: T23, PRKCE (Homo sapiens, UniProt Q02156); assay: Ambit KinomeScan screening; format: binding; conditions: CAL-130 10 μM
T23 construct: purchased Ambit (KinomeScan screening service)
How it was run: as §1

[24] = target: T24, RIPK4 (Homo sapiens, UniProt P57078); assay: Ambit KinomeScan screening; format: binding; conditions: CAL-130 10 μM
T24 construct: unspecified tag (tagged kinase); purchased Ambit (KinomeScan screening)
How it was run: as §1

[25] = target: T25, RPS6KA4 (Homo sapiens, UniProt O75676); assay: Ambit KinomeScan screening; format: binding; conditions: CAL-130 10 μM
T25 construct: tag, kind not specified; purchased Ambit (KinomeScan screening service)
How it was run: as §1

[26] = target: T26, SLK (Homo sapiens, UniProt Q9H2G2); assay: Ambit KinomeScan screening; format: binding; conditions: CAL-130 10 μM
T26 construct: tag, kind not specified; purchased Ambit (KinomeScan screening service)
How it was run: as §1

[27] = target: T27, YES (Homo sapiens, UniProt P07947); assay: Ambit KinomeScan screening; format: binding; conditions: CAL-130 10 μM
T27 construct: purchased Ambit (KinomeScan screening service)
How it was run: as §1

[28] = target: T28, p38-α (Homo sapiens, UniProt Q16539); assay: Ambit KinomeScan screening; format: binding; conditions: CAL-130 10 μM
T28 construct: purchased Ambit (KinomeScan screening service)
T28 sequence (Q16539 whole entry): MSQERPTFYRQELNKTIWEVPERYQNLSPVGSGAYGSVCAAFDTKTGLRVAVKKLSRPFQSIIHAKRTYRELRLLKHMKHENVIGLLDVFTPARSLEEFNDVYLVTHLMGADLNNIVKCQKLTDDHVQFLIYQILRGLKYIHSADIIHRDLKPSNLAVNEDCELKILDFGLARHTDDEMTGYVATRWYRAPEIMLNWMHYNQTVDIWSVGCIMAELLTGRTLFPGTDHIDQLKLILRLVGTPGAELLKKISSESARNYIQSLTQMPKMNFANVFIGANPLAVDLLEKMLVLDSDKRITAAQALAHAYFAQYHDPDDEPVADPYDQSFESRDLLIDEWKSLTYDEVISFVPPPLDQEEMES
How it was run: as §1

[29] = target: T29, p38-β (Homo sapiens, UniProt Q15759); assay: Ambit KinomeScan screening; format: binding; conditions: CAL-130 10 μM
T29 construct: purchased Ambit (KinomeScan screening service)
T29 sequence (Q15759 whole entry): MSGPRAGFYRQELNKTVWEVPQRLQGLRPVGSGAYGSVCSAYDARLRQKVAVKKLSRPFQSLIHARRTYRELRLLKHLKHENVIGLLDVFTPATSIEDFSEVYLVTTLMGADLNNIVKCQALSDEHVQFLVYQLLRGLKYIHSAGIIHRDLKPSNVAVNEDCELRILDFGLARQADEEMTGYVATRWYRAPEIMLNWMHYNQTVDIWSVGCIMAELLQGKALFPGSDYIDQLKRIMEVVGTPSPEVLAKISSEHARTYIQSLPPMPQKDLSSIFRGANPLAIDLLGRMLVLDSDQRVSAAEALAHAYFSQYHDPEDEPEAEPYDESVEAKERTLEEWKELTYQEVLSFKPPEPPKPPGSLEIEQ
How it was run: as §1

[30] = test system: primary human T-ALL tumor cells; assay: Akt phosphorylation in primary T-ALL samples (immunoblot); format: cell-based; conditions: 6 hours of treatment
Description: Cell lysates (from cell lines or thymocytes) were prepared on ice in M-PER Mammalian Protein Extraction reagent (Pierce) containing a cocktail of protease and phosphatase inhibitors (Swat et al., 2006). Equal amounts of total protein from lysates were subjected to SDS-PAGE, transferred to PVDF membrane (Immobilon-P, Millipore), and membranes probed by overnight incubation with appropriate primary antibodies. Bound antibodies were visualized with HRP-conjugated secondary antibodies and ECL chemistry (SuperPico West, Pierce).

Cc1ccccc1-n1c(C(C)Nc2nc(N)nc3nc[nH]c23)nc2cccc(C)c2c1=O (stereo not drawn) [CAL-130]
Percent of Control Binding [1]: 100%
Percent of Control Binding [2]: 100%
Percent of Control Binding [3]: 100%
Percent of Control Binding [4]: 100%
Percent of Control Binding [5]: 100%
Percent of Control Binding [6]: 100%
Percent of Control Binding [7]: 100%
Percent of Control Binding [8]: 100%
Percent of Control Binding [9]: 100%
Percent of Control Binding [10]: 100%
Percent of Control Binding [11]: 100%
Percent of Control Binding [12]: 100%
Percent of Control Binding [13]: 100%
Percent of Control Binding [14]: 100%
Percent of Control Binding [15]: 100%
Percent of Control Binding [16]: 100%
Percent of Control Binding [17]: 100%
Percent of Control Binding [18]: 100%
Percent of Control Binding [19]: 100%
Percent of Control Binding [20]: 100%
Percent of Control Binding [21]: 100%
Percent of Control Binding [22]: 100%
Percent of Control Binding [23]: 100%
Percent of Control Binding [24]: 100%
Percent of Control Binding [25]: 100%
Percent of Control Binding [26]: 100%
Percent of Control Binding [27]: 100%
Percent of Control Binding [28]: 100%
Percent of Control Binding [29]: 100%
Akt phosphorylation [30]: reduction
